pIC50: −log10 of the molar value. Active and inactive are the calls of the source. The rule behind the calls is not given here.
What was measured:
CCRF-CEM [1] = experiment: Induction of apoptosis in human CEM cells assessed as increase of caspase 3/7 activity using Ac-DEVD-AMC as substrate at 50 uM after 24 hrs relative to control; assay type: functional
CCRF-CEM [2] = experiment: Cell cycle arrest in human CEM cells assessed as accumulation at sub-G1 phase at 5 to 50 uM after 24 hrs using propidium iodide staining by flow cytometric analysis; assay type: functional, cell-based
HeLa = experiment: Cytotoxicity against human HeLa cells after 72 hrs by calcein AM assay; assay type: functional, cell-based
CCRF-CEM [3] = experiment: Cell cycle arrest in human CEM cells assessed as decrease of procaspase 3 level after 24 hrs by Western blotting analysis; assay type: functional, cell-based
CCRF-CEM [4] = experiment: Cytotoxicity against human CEM cells after 72 hrs by calcein AM assay; assay type: functional, cell-based
CCRF-CEM [5] = experiment: Cell cycle arrest in human CEM cells assessed as accumulation at G0/G1 phase at 5 to 50 uM after 24 hrs using propidium iodide staining by flow cytometric analysis; assay type: functional, cell-based
CCRF-CEM [6] = experiment: Cell cycle arrest in human CEM cells assessed as accumulation at G1 phase after 24 hrs using propidium iodide staining by flow cytometric analysis; assay type: functional, cell-based
MCF7 = experiment: Cytotoxicity against human MCF7 cells after 72 hrs by calcein AM assay; assay type: functional, cell-based; settings: MCF7, 72 h
CCRF-CEM [7] = experiment: Cell cycle arrest in human CEM cells assessed as accumulation at G2/M phase at 5 to 50 uM after 24 hrs using propidium iodide staining by flow cytometric analysis; assay type: functional, cell-based
CCRF-CEM [8] = experiment: Cell cycle arrest in human CEM cells assessed as decrease of procaspase 3 level at 50 uM after 24 hrs by Western blotting analysis; assay type: functional, cell-based
CCRF-CEM [9] = experiment: Cell cycle arrest in human CEM cells assessed as increase of cleaved of PARP level after 24 hrs by Western blotting analysis; assay type: functional, cell-based
CCRF-CEM [10] = experiment: Cell cycle arrest in human CEM cells assessed as increase of cleaved of PARP level at 50 uM after 24 hrs by Western blotting analysis; assay type: functional, cell-based
BJ = experiment: Cytotoxicity against human BJ cells after 72 hrs by calcein AM assay; assay type: cell-based

Row | Structure (SMILES) | fold change (FC) (CCRF-CEM [1]) | Activity (CCRF-CEM [2]) | pIC50 (HeLa) | Activity (CCRF-CEM [3]) | pIC50 (CCRF-CEM [4]) | Activity (CCRF-CEM [5]) | Activity (CCRF-CEM [6]) | pIC50 (MCF7) | Activity (CCRF-CEM [7]) | Activity (CCRF-CEM [8]) | Activity (CCRF-CEM [9]) | Activity (CCRF-CEM [10]) | pIC50 (BJ)
1 | C/C=C(\C[C@@H](C)CO)C(=O)[C@@H](C)[C@H]1[C@@H](OC(C)=O)C[C@H]2[C@@H]3CC=C4C[C@@H](OC(C)=O)CC[C@]4(C)[C@H]3CC[C@]12C | 2.4 | Active | < 4.30 | Dose-dependent effect | 4.95 | Active | Dose-dependent effect | < 4.30 | Active | Active | Dose-dependent effect | Active | < 4.30
2 | CC(C)CCC[C@@H](C)[C@H]1CC[C@H]2[C@@H]3CC=C4C[C@@H](O)CC[C@]4(C)[C@H]3CC[C@]12C [CHOLESTEROL] | – | – | < 4.30 | – | < 4.30 | – | – | < 4.30 | – | – | – | – | < 4.30
3 | CC(=O)O[C@H]1CC[C@@]2(C)C(=CC[C@H]3[C@@H]4C[C@H](OC(C)=O)[C@H]([C@H](C)C(=O)C5=C(C)OC[C@H](C)C5)[C@@]4(C)C(=O)C[C@@H]32)C1 | – | – | < 4.30 | – | 4.98 | – | – | 4.33 | – | – | – | – | < 4.30
4 | C/C=C(\C[C@@H](C)CO)C(=O)[C@@H](C)[C@H]1[C@@H](OC(C)=O)C[C@H]2[C@@H]3CC[C@H]4C[C@@H](OC(C)=O)CC[C@]4(C)[C@H]3CC[C@]12C | 4.3 | Active | < 4.30 | Dose-dependent effect | 5.23 | Active | Dose-dependent effect | 4.83 | Active | Active | Dose-dependent effect | Active | < 4.30
5 | CC(=O)O[C@H]1CC[C@@]2(C)[C@@H](CC[C@@H]3[C@@H]2CC[C@]2(C)[C@@H]([C@H](C)C(=O)C4=C(C)OC[C@H](C)C4)[C@@H](OC(C)=O)C[C@@H]32)C1 | – | – | < 4.30 | – | 4.68 | – | – | 4.45 | – | – | – | – | < 4.30
6 | CC(=O)O[C@H]1CC[C@@]2(C)C(=CC[C@H]3[C@@H]4C[C@H](OC(C)=O)[C@H]([C@H](C)C(=O)C5=C(C)OC[C@H](C)C5)[C@@]4(C)[C@H](O)C[C@@H]32)C1 | – | – | < 4.30 | – | 4.86 | – | – | < 4.30 | – | – | – | – | < 4.30
7 | C/C=C(\C[C@@H](C)CO)C(=O)[C@@H](C)[C@H]1[C@@H](OC(C)=O)C[C@H]2[C@@H]3CC=C4C[C@@H](OC(C)=O)CC[C@]4(C)[C@H]3CC(=O)[C@]12C | – | – | < 4.30 | – | 4.72 | – | – | < 4.30 | – | – | – | – | < 4.30
8 | CC(=O)O[C@H]1CC[C@@]2(C)C(=CC[C@H]3[C@@H]4C[C@H](OC(C)=O)[C@H]([C@H](C)C(=O)C5=C(C)OC[C@H](C)C5)[C@@]4(C)CC[C@@H]32)C1 | – | – | < 4.30 | – | 4.39 | – | – | < 4.30 | – | – | – | – | < 4.30
